Results reported in the supplement of paper PMC8837787.

system: Saccharomyces cerevisiae ABC16-Green Monster; experiment: growth inhibition at single dose (up to 150 µM), below the 70% cut-off for dose-response; higher = more potent; settings: 18 h; 30 °C; YPD
In short: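 The entry is percent growth inhibition of drug-sensitive S. cerevisiae ABC16-Green Monster cells. After overnight growth in YPD at 30 °C, cells were diluted to OD600 0.1–0.2 and exposed to each library compound at 150 µM in 200 µl per well, in biological duplicates with untreated cultures beside them, and OD600 was read at 0 h and after 18 h at 30 °C. Any compound under 70% in both replicates was not carried to dose-response.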

| SMILES | growth inhibition at single dose |
| --- | --- |
| CO/N=C(\C(=O)OC)c1ccccc1CO/N=C(\C)c1cccc(C(F)(F)F)c1 | < 70% |
| O=C(Nc1ccccc1)c1ccc(CN2CCN(CCOc3ccccc3)CC2)cc1 | < 70% |
| Cc1ccc2c(c1)nc1n2CN(CCN2CCOCC2)CN1Cc1ccccc1 | < 70% |
| CN1CCCN(C(c2ccccc2)c2ccc(Cl)cc2)CC1 (stereo not drawn) | < 70% |
| COc1ccc2nc(C)cc(Nc3ccccc3O)c2c1 | < 70% |
| Cc1nc(NCCNc2cnccn2)c2c(-c3cccs3)csc2n1 | < 70% |
| Cc1ccc2[nH]c3c(NCCN(C)C)ncnc3c2c1 | < 70% |
| Cc1cc(N2CCN(C)CC2)n2ncc(-c3ccc(F)cc3)c2n1 | < 70% |
| COc1ccc(N2CCN(C(CNC(=O)C3CCCCC3)c3ccc4c(c3)OCO4)CC2)cc1 (stereo not drawn) | < 70% |
| O=C(Nc1nc2ccc(OC(F)(F)F)cc2s1)c1cnccn1 | < 70% |
| c1ccc2sc(-c3nc4ccccc4s3)nc2c1 | < 70% |
| CC(=O)O[C@H]1CC[C@]2(C)C3CC[C@]4(C)C(C5=CC(=O)OC5)CC[C@]4(O)C3CC[C@@H]2C1 (stereo partly drawn) | < 70% |
| CC(C)(C)OC(=O)N1CCN(c2cc(-c3ccc(Oc4ccccc4)cc3)n[nH]2)CC1 | < 70% |
| O=C(NC1CCCCC1)N1CCN(Cc2ccc3c(c2)OCO3)CC1 | < 70% |
| Cc1ccc(C(NCC(=O)Nc2sccc2C(N)=O)c2cccs2)cc1 (stereo not drawn) | < 70% |
| Nc1ncc(-c2ccc(C(F)(F)F)nc2)cc1-c1ccc(C(F)(F)F)nc1 | < 70% |
| CC(C)(C)c1ccc(N[C@@H]2CCCC[C@H]2NC(=O)c2ccco2)cc1 | < 70% |
| CNC(=O)c1ccc(CN(C2CC2)S(=O)(=O)c2ccc(C)cc2C)cc1 | < 70% |
| CCOc1ccc(CN2CCN(CC(O)COc3ccc(OCC(O)CN4CCN(Cc5ccc(OCC)cc5)CC4)cc3)CC2)cc1 (stereo not drawn) | < 70% |

| SMILES | growth inhibition at single dose |
| --- | --- |
| c1ccc(-c2[nH]c3ccccc3c2C(c2ccccn2)N2CCCC2)cc1 (stereo not drawn) | < 70% |
| Nc1nccc2ccc(-c3ccc4nccn4c3)cc12 | < 70% |
| Cc1ccc2cc3c(N)c4c(C)ccc(C)c4nc3nc2c1 | < 70% |
| C=CCn1c(C)cc(C(=O)CNC(=O)Nc2ccccc2)c1C | < 70% |
| COc1ccc(-c2c(C)nn3c(NCc4ccccn4)cc(C)nc23)cc1OC | < 70% |
| CCCS(=O)(=O)N1CCC(CO)(Cc2ccccc2C(F)(F)F)CC1 | < 70% |
| CCCOc1ccc(/C=N/NC(=S)Nc2ccccc2[N+](=O)[O-])c(O)c1 | < 70% |
| CCCn1nc(C(=O)NCCc2ccc(-n3cccn3)cc2)c2ccccc2c1=O | < 70% |
| O=C(NC1=NCCS1)c1sc2cc(F)ccc2c1Cl | < 70% |
| NC(=O)c1cc(Br)ccc1OCCOc1ccccc1 | < 70% |
| COc1ccc(CNC2CCN(c3ccc(NC(=O)c4cccc(Cl)c4)cc3)CC2)cc1OC | < 70% |
| CC(=O)c1c[nH]c(C(=O)OCC(=O)NCCc2ccc(C(C)C)cc2)c1 | < 70% |
| OC(Cn1nnc2ccccc21)Cn1c2ccc(Br)cc2c2cc(Br)ccc21 (stereo not drawn) | < 70% |
| CN(C)c1ccc(N=Cc2ccc(N3CCOCC3)cc2)cc1 | < 70% |
| O=C(NNc1cccc(F)n1)C(F)(F)F | < 70% |
| NCCC(O)C(=O)N[C@@H]1C[C@H](N)[C@@H](OC2O[C@H](CN)[C@@H](O)[C@H](O)[C@H]2O)[C@H](O)C1OC1O[C@H](CO)[C@@H](O)[C@H](N)[C@H]1O (stereo partly drawn) | < 70% |
| Cn1nnnc1SCC(=O)Nc1ccc(C(=O)Nc2ncccc2O)cc1 | < 70% |
| COc1ccc(S(=O)(=O)N2CCSc3cc(Cl)ccc32)cc1 | < 70% |
| CCN(CC)CCNc1ncnc2c1[nH]c1ccc(Cl)cc12 | < 70% |
